Assay results: PMC10165273, “Itch receptor MRGPRX4 interacts with the receptor activity–modifying proteins” (The Journal of Biological Chemistry, 2023)
Where “and” joins values, the source holds several entries; their conditions need not be identical. Equal entries are not always repeated. Where two headings read alike, the source gives them in different places.

Target: T1, MRGPRX4 + RAMP3 (Homo sapiens, UniProt Q96LA9)
T1 construct: expressed in transfected cells; host or cells: HEK293T
Assay: IP1 accumulation, MRGPRX4 coexpressed with RAMP3
Format: cell-based
Set-up: key to IP1 Basal / response to agonist, X4:ramp3.I:0.25 / response to agonist, X4:ramp3.I:0.5 / response to agonist, X4:ramp3.I:1: % IP1; unstimulated mock = 0%, fully stimulated MRGPRX4 = 100%
Settings: for activation at 100 µM / activation at 20 µM / activation at 4 µM / activation at 0.8 µM / activation at […] / activation at 0.032 µM: 2 h
Procedure: HEK293T cells were transfected with 1 pg/cell of MRGPRX4 DNA, and the amount of DNA was kept constant at 2 pg/cell with pcDNA3.1(+) empty vector, unless otherwise specified. Twenty four hours after transfection, IP1 assay was performed as previously described ([51]). When applicable, cells were treated with 1 μM YM254890 (YM) or different concentrations of U73122 for 1 h prior to addition of agonist or buffer. After incubation for 2 h, HTRF reagents and IP1 calibration standards were added and incubated for 2 h in the dark at room temperature. Time-resolved fluorescence signals were read on the BioTek Synergy NEO-TRF Hybrid multi-mode reader (BioTek Instruments). All data were carried out in three independent experiments with three technical replicate each.
For RAMP DNA titration assay, HEK293T cells were cotransfected with a constant amount of 1 pg/cell of FLAG-MRGPRX4-GFP10-1D4 to which a serial dilution of 1, 0.75, 0.5, 0.25, or 0 pg/cell of each HA-RAMP-OLLAS was added. For a homogenous transfection of MRGPRX4, a master mix of MRGPRX4 DNA was made prior to addition of the RAMP DNA. […]
Data reduction, standard calibration, and transformation of HTRF data were performed as previously described ([51]). Normalized IP1 values were calculated relative to the unstimulated mock-transfected cells (set to 0%) and fully stimulated MRGPRX4 (alone if applicable) (set to 100%).

[1] = MRGPRX4 + RAMP3 0.25 pg (Fig. S3), normalized per agonist
[2] = MRGPRX4 + RAMP3 0.5 pg (Fig. S3), normalized per agonist
[3] = MRGPRX4 + RAMP3 1 pg (Fig. S3), normalized per agonist
[4] = MRGPRX4 + RAMP3 2 pg (Fig. S3), normalized per agonist
[5] = Tet-On MRGPRX4:RAMP3 Ratio 1:0.5 (Fig. S5F)

T1 sequence (Q96LA9 whole entry): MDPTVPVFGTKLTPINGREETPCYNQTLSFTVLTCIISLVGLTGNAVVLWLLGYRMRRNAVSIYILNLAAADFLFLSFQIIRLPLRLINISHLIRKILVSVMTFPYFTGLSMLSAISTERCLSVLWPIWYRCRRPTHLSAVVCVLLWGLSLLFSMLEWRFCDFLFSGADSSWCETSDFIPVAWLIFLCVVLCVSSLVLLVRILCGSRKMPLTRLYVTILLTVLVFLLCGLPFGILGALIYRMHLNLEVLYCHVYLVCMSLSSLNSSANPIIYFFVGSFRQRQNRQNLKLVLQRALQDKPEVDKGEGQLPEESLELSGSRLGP

CC(C)[C@H]1CC[C@H](C(=O)N[C@H](Cc2ccccc2)C(=O)O)CC1 [Nateglinide]
activation at 100 µM (log [nateglinide] (M) -4, MRGPRX4+RAMP3 0.75pg 1:0.75, Supplementary Figure 5f, read-out: IP1 accumulation (normalized)): 80.5%
activation at 20 µM (log [nateglinide] (M) -4.69897, MRGPRX4+RAMP3 0.75pg 1:0.75, Supplementary Figure 5f, read-out: IP1 accumulation (normalized)): 75.4%
activation at 4 µM (log [nateglinide] (M) -5.39794, MRGPRX4+RAMP3 0.5pg 1:0.5, Supplementary Figure 5f, read-out: IP1 accumulation (normalized)): 44.2%
activation at 4 µM (log [nateglinide] (M) -5.39794, MRGPRX4+RAMP3 0.75pg 1:0.75, Supplementary Figure 5f, read-out: IP1 accumulation (normalized)): 36.8%
activation at 0.8 µM (log [nateglinide] (M) -6.09691, MRGPRX4+RAMP3 0.5pg 1:0.5, Supplementary Figure 5f, read-out: IP1 accumulation (normalized)): 21.5%
activation at 0.8 µM (log [nateglinide] (M) -6.09691, MRGPRX4+RAMP3 0.75pg 1:0.75, Supplementary Figure 5f, read-out: IP1 accumulation (normalized)): 14.8%
activation at 0.8 µM (log [nateglinide] (M) -6.09691, MRGPRX4+RAMP3 1pg 1:1, Supplementary Figure 5f, 5g, read-out: IP1 accumulation (normalized)): 20.8%
activation at […] (log [nateglinide] (M) -6.79588, MRGPRX4+RAMP3 0.5pg 1:0.5, Supplementary Figure 5f, read-out: IP1 accumulation (normalized)): 13.1%
activation at […] (log [nateglinide] (M) -6.79588, MRGPRX4+RAMP3 0.75pg 1:0.75, Supplementary Figure 5f, read-out: IP1 accumulation (normalized)): 12%
activation at 0.032 µM (log [nateglinide] (M) -7.49485, MRGPRX4+RAMP3 0.5pg 1:0.5, Supplementary Figure 5f, read-out: IP1 accumulation (normalized)): 12.9%
activation at 0.032 µM (log [nateglinide] (M) -7.49485, MRGPRX4+RAMP3 0.75pg 1:0.75, Supplementary Figure 5f, read-out: IP1 accumulation (normalized)): 9.2%
activation at 0.032 µM (log [nateglinide] (M) -7.49485, MRGPRX4+RAMP3 1pg 1:1, Supplementary Figure 5f, 5g, read-out: IP1 accumulation (normalized)): 13.1%
activation at 100 µM (ratio MRGPRX4:RAMP3 1:0.25, log [Nateglinide] (M) -4, Fig S3c, read-out: IP1 accumulation): 75.8%
activation at 20 µM (ratio MRGPRX4:RAMP3 1:0.25, log [Nateglinide] (M) -4.69897, Fig S3c, read-out: IP1 accumulation): 68.5%
activation at 4 µM (ratio MRGPRX4:RAMP3 1:0.25, log [Nateglinide] (M) -5.39794, Fig S3c, read-out: IP1 accumulation): 41%
activation at 0.8 µM (ratio MRGPRX4:RAMP3 1:0.25, log [Nateglinide] (M) -6.09691, Fig S3c, read-out: IP1 accumulation): 25.1%
activation at […] (ratio MRGPRX4:RAMP3 1:0.25, log [Nateglinide] (M) -6.79588, Fig S3c, read-out: IP1 accumulation): 23.1%
activation at 0.032 µM (ratio MRGPRX4:RAMP3 1:0.25, log [Nateglinide] (M) -7.49485, Fig S3c, read-out: IP1 accumulation): 21%
activation at 100 µM (ratio MRGPRX4:RAMP3 1:0.5, log [Nateglinide] (M) -4, Fig S3c, read-out: IP1 accumulation): 91%
activation at 20 µM (ratio MRGPRX4:RAMP3 1:0.5, log [Nateglinide] (M) -4.69897, Fig S3c, read-out: IP1 accumulation): 74.7%
activation at 4 µM (ratio MRGPRX4:RAMP3 1:0.5, log [Nateglinide] (M) -5.39794, Fig S3c, read-out: IP1 accumulation): 39.2%
activation at 0.8 µM (ratio MRGPRX4:RAMP3 1:0.5, log [Nateglinide] (M) -6.09691, Fig S3c, read-out: IP1 accumulation): 21.5%
activation at […] (ratio MRGPRX4:RAMP3 1:0.5, log [Nateglinide] (M) -6.79588, Fig S3c, read-out: IP1 accumulation): 16.2%
activation at 0.032 µM (ratio MRGPRX4:RAMP3 1:0.5, log [Nateglinide] (M) -7.49485, Fig S3c, read-out: IP1 accumulation): 16.8%
activation at 100 µM (ratio MRGPRX4:RAMP3 1:1, log [Nateglinide] (M) -4, Fig S3c, read-out: IP1 accumulation): 86.2%
activation at 20 µM (ratio MRGPRX4:RAMP3 1:1, log [Nateglinide] (M) -4.69897, Fig S3c, read-out: IP1 accumulation): 67.6%
activation at 4 µM (ratio MRGPRX4:RAMP3 1:1, log [Nateglinide] (M) -5.39794, Fig S3c, read-out: IP1 accumulation): 32.5%
activation at 0.8 µM (ratio MRGPRX4:RAMP3 1:1, log [Nateglinide] (M) -6.09691, Fig S3c, read-out: IP1 accumulation): 18.7%
activation at […] (ratio MRGPRX4:RAMP3 1:1, log [Nateglinide] (M) -6.79588, Fig S3c, read-out: IP1 accumulation): 15.5%
activation at 0.032 µM (ratio MRGPRX4:RAMP3 1:1, log [Nateglinide] (M) -7.49485, Fig S3c, read-out: IP1 accumulation): 13.9%
activation at 100 µM (ratio MRGPRX4:RAMP3 1:2, log [Nateglinide] (M) -4, Fig S3c, read-out: IP1 accumulation): 83.7%
activation at 4 µM (ratio MRGPRX4:RAMP3 1:2, log [Nateglinide] (M) -5.39794, Fig S3c, read-out: IP1 accumulation): 28.1%
activation at 0.8 µM (ratio MRGPRX4:RAMP3 1:2, log [Nateglinide] (M) -6.09691, Fig S3c, read-out: IP1 accumulation): 16.1%
activation at […] (ratio MRGPRX4:RAMP3 1:2, log [Nateglinide] (M) -6.79588, Fig S3c, read-out: IP1 accumulation): 14.2%
activation at 0.032 µM (ratio MRGPRX4:RAMP3 1:2, log [Nateglinide] (M) -7.49485, Fig S3c, read-out: IP1 accumulation): 12.5%
Emax (Figure 4a bottom, DNA ratio MRGPRX4:RAMP3 1:0.5, MRGPRX4 alone = 100, read-out: efficacy): 86.9%
EC50 (Figure 4a top, DNA ratio MRGPRX4:RAMP3 1:0.25, individual replicates, read-out: potency (converted)): 11.8 µM and 9.51 µM and 7.13 µM
EC50 (Figure 4a top, DNA ratio MRGPRX4:RAMP3 1:0.5, individual replicates, read-out: potency (converted)): 11.4 µM and 8.91 µM and 11.9 µM
EC50 (Figure 4a top, DNA ratio MRGPRX4:RAMP3 1:0.75, individual replicates, read-out: potency (converted)): 11.6 µM and 10 µM and 5.04 µM
EC50 (Figure 4a top, DNA ratio MRGPRX4:RAMP3 1:1, individual replicates, read-out: potency (converted)): 11 µM and 13.4 µM and 7.31 µM
response to agonist, X4:ramp3.I:0.25 (Figure 4c-f, agonist 100µM, X4:ramp3 1:0.25, MRGPRX4 = 100): 78.1524 and 81.0936
response to agonist, X4:ramp3.I:0.5 (Figure 4c-f, agonist 100µM, X4:ramp3 1:0.5, MRGPRX4 = 100): 74.9289 and 71.6542
response to agonist, X4:ramp3.I:1 (Figure 4c-f, agonist 100µM, X4:ramp3 1:1, MRGPRX4 = 100): 57.9146 and 58.6922
IP1 Basal [1]: 18.35
IP1 span (top minus basal of the concentration-response fit) [1]: 72%
EC50 (MRGPRX4 + RAMP3 0.25 pg (Fig. S3), normalized per agonist, read-out: IP1 EC50): 7.44 µM
Emax (MRGPRX4 + RAMP3 0.25 pg (Fig. S3), normalized per agonist, read-out: IP1 Emax): 90.3%
IP1 Basal [2]: 17.78
IP1 span (top minus basal of the concentration-response fit) [2]: 70.5%
EC50 (MRGPRX4 + RAMP3 0.5 pg (Fig. S3), normalized per agonist, read-out: IP1 EC50): 10.6 µM
Emax (MRGPRX4 + RAMP3 0.5 pg (Fig. S3), normalized per agonist, read-out: IP1 Emax): 88.3%
IP1 Basal [3]: 13.65
IP1 span (top minus basal of the concentration-response fit) [3]: 76.8%
EC50 (MRGPRX4 + RAMP3 1 pg (Fig. S3), normalized per agonist, read-out: IP1 EC50): 12 µM
Emax (MRGPRX4 + RAMP3 1 pg (Fig. S3), normalized per agonist, read-out: IP1 Emax): 90.4%
IP1 Basal [4]: 11.70
IP1 span (top minus basal of the concentration-response fit) [4]: 79.7%
EC50 (MRGPRX4 + RAMP3 2 pg (Fig. S3), normalized per agonist, read-out: IP1 EC50): 14.5 µM
Emax (MRGPRX4 + RAMP3 2 pg (Fig. S3), normalized per agonist, read-out: IP1 Emax): 91.3%
IP1 Basal [5]: 10.08
IP1 span (top minus basal of the concentration-response fit) [5]: 83.3%
EC50 (Tet-On MRGPRX4:RAMP3 Ratio 1:0.5 (Fig. S5F), read-out: IP1 EC50): 7.17 µM
Emax (Tet-On MRGPRX4:RAMP3 Ratio 1:0.5 (Fig. S5F), read-out: IP1 Emax): 93.4%
